# Tested on: rats treated with scopolamine
# Experiment: Zone Quick test (phenol red thread) of tear production in the scopolamine dry eye model
# Type: in vivo, rat
# Settings: FIG. 1
# Description: Another well-accepted model of dry eye is the scopolamine model which utilizes subcutaneous injections (5 mg in 10 ml) or dermal patch or gel dosage (Durson et al., Invest. Ophthalmol. Vis. Sci. 43: 632-8, 2002) of scopolamine to induce a dry eye condition in rats by parasympatholytic blockade of natural tear production.
# These models and their variations were used to test the efficacy of genistein, delivered as a feed admixture (50 mg/kg low dose and 250 mg/kg high dose) to ameliorate the effects of dry eye. In addition, one test group served as a control group, receiving vehicle feed only with no added isoflavonoids.
# Tear volume was assessed by using absorptive threads impregnated with Phenol Red (zone quick test). Outcome measures are according to criteria published in test instructions as well as comparison with control animal results.
# Tear volume was monitored by the Zone Quick test. This in-life test is a standardized measure of tear production. It consists of a thread impregnated with phenol red which causes a colour change of the length of the thread that becomes wet from tears when the thread is applied to the lacrimal lake. The length (in mm) of the wetted thread is proportional to the tear volume produced.
# 0-CON, 0-SCOP: each 8 control animals (not on scopolamine or on scopolamine)
# 50-SCOP: 8 animals (on scopolamine) suppl. with 50 ppm genistein […]
compound,measurement,setting,value
"O=c1c(-c2ccc(O)cc2)coc2cc(O)cc(O)c12 [genistein, 4′,5,7-trihydroxy-isoflavone]",dose dependence of tear volume restoration,250 vs 50 genistein supplementation groups,more pronounced in the group supplemented with 250 mg than in that with 50 mg
same,"tear volume (Zone Quick test, length of wetted thread)","genistein as feed admixture, 50 or 250 ppm, supplementation 2.5 weeks (MIDTEST) and 5.0 weeks (FINALTEST), compared with control animals",restored their tear volume almost to control values
